Source: US20230149510A1, “METHOD FOR ALLEVIATING ARTHRITIS USING EPIDERMAL GROWTH FACTOR” (Lovin BioMed Co., Ltd., priority 2021, published 2023)

How the values were obtained:
[1] = test system: monosodium iodoacetate (MIA)-induced osteoarthritis (OA), right knee joint; assay: Diameter of right knee joint in MIA-induced OA rats; assay type: in vivo, Sprague Dawley rats; details: 30 μL intraarticular on day 3 and day 14, measured end of day 28 with caliper, FIG. 1
Protocol: A. Preparation of mixture containing EGF, CS, and HA EGF, CS, and HA were mixed in a weight ratio of 1:100:1000 in sterile water, so as to obtain a mixture containing EGF (20 μg/g), CS, and HA.
Male Sprague Dawley rats (6 weeks old, with a body weight of approximately 200 to 300 g) used in the following experiments were purchased from National Laboratory Animal Center, Taipei City, Taiwan. All the experimental mice were housed in an animal room under the following laboratory conditions: an alternating 12-hour light and 12-hour dark cycle, a temperature maintained at 21° C. to 24° C., and a relative humidity maintained at 45% to 70%. Furthermore, water and feed were provided ad libitum for all the experimental mice. All experimental procedures involving the experimental mice were in compliance with the legal provision of the Institutional Animal Care and Use Committee of National Chung Hsing University, Taiwan, and were carried out according to the Guide for the Care and Use of Laboratory Animals of National Institutes of Health (NIH).
The Sprague Dawley rats were divided into five groups, including one normal control group, one pathological control group, one comparative group, and two experimental groups (i.e., experimental groups 1 to 2) (n=5 rats in each group). […]
The data thus obtained were analyzed according to the method described in section 1 of “General Procedures”.

[2] = test system: knee joint tissue of the hind leg, CII-induced RA; assay: Histopathologic analysis of knee joint tissue of the hind leg, collagen-induced RA; assay type: in vivo, DBA/1 mice; details: mice; for morphological observation of cartilage structure and surface: knee joint of hind leg after day 42, data not shown
Protocol: 2 mg/mL of a Chick type II collagen (CII) solution (Chondrex Inc., Cat. No. 20012) (in 10 mM acetic acid) was mixed with complete Freund's adjuvant (Sigma Aldrich, Cat. No. F5881-10ML) at a ratio of 1:1 (v/v), so as to obtain a first CII emulsion. 2 mg/mL of a Chick type CII solution was mixed with incomplete Freund's adjuvant (ChemCruzx, Cat. No. sc-24648) at a ratio of 1:1 (v/v), so as to obtain a second CII emulsion.
The female DBA/1 mice were divided into five groups, including one normal control group, one pathological control group, one comparative group, and two experimental groups (i.e., experimental groups 1 to 2) (n=6 mice in each group). 200 μL of the first CII emulsion was injected subcutaneously into the tail of the respective mouse of the pathological control group, the comparative group, and the two experimental groups. The mice were subjected to a boost injection using 200 μL of the second CII emulsion on the 21st day after the initial immunization, so as to induce the occurrence of RA. In addition, the rats of the normal control group were injected with an adjuvant solution (in PBS).
After completion of the boost injection, the respective mouse in the comparative group was intraperitoneally injected with 100 μL of 1% HA, the respective mouse in the experimental group 1 was intraperitoneally injected with 100 μL of the EGF solution (containing 20 μg/g EGF) prepared in section C of Example 1, the respective mouse in the experimental group 2 was intraperitoneally injected with 100 μL of the mixture solution (containing 20 μg/g EGF) prepared in section C of Example 1. Each mouse was administered once daily for a total period of 20 days.
After completion of the evaluation of RA severity as described in section C of this example, the mice in each group were sacrificed by virtue of 95% CO2 asphyxiation, and the knee joint tissue of the hind leg and the sole tissue were obtained from each mouse carcass. The knee joint tissue of the hind leg of each mouse was subjected to histological sectioning, hematoxylin-eosin staining, and microscopic observation in sequence according to the methods described in section F of Example 1.
Next, the pathological symptoms (i.e., inflammatory cell infiltration, synovial hyperplasia, and cartilage surface erosion) in the respective tissue section was assessed according to the method described in Deng G. M. et al. (2005), Nat Med., 11:1066-1072. The degrees of inflammatory cell infiltration, synovial hyperplasia, and cartilage surface erosion were scored on a scale from 1 to 4. The higher the scale, the higher the severity of the pathological symptom is.
The data thus obtained were analyzed according to the method described in section 1 of the “General Procedures”.

Substance	diameter of the right knee joint [1]	morphological observation of cartilage structure and surface [2]	scale of cartilage surface erosion (scale 1 to 4) ([2]; knee joint of hind leg, FIG. 7)	scale of inflammatory cell infiltration (scale 1 to 4) ([2]; knee joint of hind leg, FIG. 7)	scale of synovial hyperplasia (scale 1 to 4) ([2]; knee joint of hind leg, FIG. 7)
EGF: Epidermal growth factor (Cat. No. 02-108, Joycom Bio-chem) dissolved in PBS, 20 μg/g EGF; given to experimental group 1 (NSDSECPLSHDGYCLHDGVCMYIEALDKYACNCVVGYIGERCQYRDLKWWELR; UniProt P01133 971-1023, looked up)	lower than that determined in the pathological control group	the cartilage structure was partially damaged, and a partially intact cartilage surface was observed	apparently or significantly lower than those determined in the pathological control group	apparently or significantly lower than those determined in the pathological control group	apparently or significantly lower than those determined in the pathological control group
hyaluronic acid [HA, reference compound]	lower than that determined in the pathological control group	the cartilage structure was partially damaged, and a partially intact cartilage surface was observed			
